Where two headings read alike, the source gives them in different places.
Key:
[1] = Zeta-potential measurement; format: physicochemical; conditions: for Zeta-pot. / mV: zeta potential of peptide, Fig S15 source data
Method in brief: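 One-day room-temperature aggregation at 1 mg/mL in PBS (pH 7.4) preceded measurement; samples then went into 1 mM KCl. Triplicates per sample, two independent experiments averaged.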

[2] = format: physicochemical
Method in brief: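 Fibrils (1 mg/mL solution) were mixed with 50 µM ThT in PBS for 15 min at RT, and fluorescence was read at λex 440/λem 488 nm against a PBS blank, as a triplicate mean ± SD. Zeta potential came from electrophoretic mobility (Smoluchowski) after 1 d aggregation at 1 mg/mL in PBS pH 7.4, diluted into 1 mM KCl.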

[3] = ThT fluorescence relative to blank (42.1851851851852 a.u.)
[4] = relative to blank 42.1851851851852 a.u.
[5] = ThT fluorescence relative to blank, blank = 42.1851851851852
[6] = category derived from the zeta potential

| Substance | Zeta category ( +1 = if > 4 mV;-1 = if < -4 mV; 0 = -4mV to 4 mV) [1] | Zeta category ( +1 = if > 4 mV;-1 = if < -4 mV; 0 = -4mV to 4 mV) ([1]; category from zeta potential) | Zeta Pot. / mV ([1]; mean, Std Zeta in next column) [mV] | Zeta Pot. / mV ([1]; mean, Std in separate column) [mV] | Zeta-pot. / mV [1] [mV] | Tht rel to blank (42.1851851851852) [2, 3] | Tht category (> 1.5 to blank = +) ([2]; category 1/0) | Tht rel to blank (42.1851851851852) [2, 4] | also measured |
| --- | --- | --- | --- | --- | --- | --- | --- | --- | --- |
| CKFKFQFNMWQ [BL2] | 1 (+1 = if > 4 mV) | 1 (+1 = if > 4 mV) | 17.03 | 17.03 | 17.03 | 2.427 | 1 (ThT. Cat is 1, if Rel. ThT >2) | 2.427 | – |
| KIKQIINM [JGA2] | 1 (+1 = if > 4 mV) | 1 (+1 = if > 4 mV) | 16.3 | 16.3 | 16.3 | 1.176 | – | – | – |
| CSISIQINM [TM145] | -1 (-1 = if < -4 mV) | – | -19.4 | – | -19.4 | – | 1 (ThT. Cat is 1, if Rel. ThT >2) | 5.919 | – |
| KLKQLL | – | – | – | – | – | – | – | – | Zeta-Pot. ([1]; zeta potential of peptide assemblies): -8.46; Zeta-Potential / mV ([1]; zeta-potential of peptide, source data of Figure 2C): -5.682 mV; Zeta-Potential / mV ([1]; zeta-potential of the peptide assemblies, mean, Figure 3A source data): -8.46 mV; Tht category (> 2 to blank = +) ([2]; Fig S10 panel D): 0 (ThT-inactive (N-Fold <2)); Tht category (> 2 to blank = +) ([2]; FigS12 panel A): 0 (ThT-inactive (N-Fold <2)); ThT Cat, ([2]; FigS12 panel B): 0 (ThT-inactive (N-Fold <2)); ThT Cat, ([2]; ThT category, 1 if Rel. ThT >2): 0 (ThT-inactive (N-Fold <2)); ThT Cat. ([2]; ThT fluorescence category, 1 if Rel. ThT >2): 0 (ThT-inactive (N-Fold <2)); ThT Cat. / ThT-Fluorescence (categorical) ([2]; ThT-active if fluorescence at least twice the control): 0 (ThT-inactive (N-Fold <2)) |
| CKWKWQW [KB4] | 1 (+1 = if > 4 mV) | – | 14.7 | – | 14.7 | – | 0 (ThT-inactive (N-Fold <2)) | 1.321 | – |
| KIKIKIQINMWQ [VH9] | – | 1 (+1 = if > 4 mV) | 13.1 | – | 13.1 | 1.586 | – | – | – |
| CEIEIQINMWQ [TM143] | -1 (-1 = if < -4 mV) | – | -25.8 | -25.8 | -25.8 | 3.705 | 1 (ThT. Cat is 1, if Rel. ThT >2) | 3.705 | – |
| CRFRVPF [CN8] | 1 (+1 = if > 4 mV) | – | 4.413 | – | 4.413 | – | 0 (ThT-inactive (N-Fold <2)) | 0.9438 | – |
| MKIKIQINMWQ [TM52] | 1 (+1 = if > 4 mV) | 1 (+1 = if > 4 mV) | 10.8 | 10.8 | 10.8 | 4.061 | 1 (ThT. Cat is 1, if Rel. ThT >2) | 4.061 | – |
| QCKFKFQFNM [CK8] | 1 (+1 = if > 4 mV) | 1 (+1 = if > 4 mV) | 15.7 | 15.7 | 15.7 | 2.317 | 1 (ThT. Cat is 1, if Rel. ThT >2) | 2.317 | – |
| QCKIKIQI [CK3] | 1 (+1 = if > 4 mV) | 1 (+1 = if > 4 mV) | 9.52 | 9.52 | 9.52 | 2.039 | 1 (ThT. Cat is 1, if Rel. ThT >2) | 2.039 | – |
| KFKFQFNM [BL6a] | 1 (+1 = if > 4 mV) | 1 (+1 = if > 4 mV) | 13.9 | 13.9 | 13.9 | 1.202 | 0 (ThT-inactive (N-Fold <2)) | 1.202 | – |
| KIKIKIQI [TG13] | 1 (+1 = if > 4 mV) | 1 (+1 = if > 4 mV) | 6.97 | – | 6.97 | 2.036 | 1 (ThT. Cat is 1, if Rel. ThT >2) | – | Zeta Pot. / mV [1]: 6.97 mV; Tht rel to blank (42.1851851851852) [2, 5]: 2.036 |
| CKFKQFF [CK15] | 1 (+1 = if > 4 mV) | – | 11.56 | 11.56 | 11.56 | 1.34 | 0 (ThT-inactive (N-Fold <2)) | 1.34 | Zeta Pot. / mV [1]: 11.56 mV; Zeta category ( +1 = if > 4 mV;-1 = if < -4 mV; 0 = -4mV to 4 mV) [1, 6]: 1 (+1 = if > 4 mV); Tht rel to blank (42.1851851851852) [2, 5]: 1.34 |
| CKFKFQF [BL4] | 1 (+1 = if > 4 mV) | 1 (+1 = if > 4 mV) | 19.73 | 19.73 | 19.73 | 2.251 | 1 (ThT. Cat is 1, if Rel. ThT >2) | 2.251 | – |
| KIKIQIC [TM112 / CN11] | 1 (+1 = if > 4 mV) | 1 (+1 = if > 4 mV) | 19.93 | – | 19.93 | 4.12 | 1 (ThT. Cat is 1, if Rel. ThT >2) | – | Zeta Pot. / mV [1]: 19.93 mV; Zeta category ( +1 = if > 4 mV;-1 = if < -4 mV; 0 = -4mV to 4 mV) [1, 6]: 1 (+1 = if > 4 mV); Tht category (> 1.5 to blank = +) ([2]; FigS26): 1 (Tht category (> 1.5 to blank = +)); Tht rel to blank (42.1851851851852) [2, 5]: 4.12 |
| CEIEIQINM [TM144] | -1 (-1 = if < -4 mV) | – | -15.3 | -15.3 | -15.3 | 5.13 | 1 (ThT. Cat is 1, if Rel. ThT >2) | 5.13 | – |
| CSISIQI [TM141] | -1 (-1 = if < -4 mV) | – | -25.93 | – | -25.93 | – | 1 (ThT. Cat is 1, if Rel. ThT >2) | 15.04 | – |
| KIKIQINMW [JGB1 /TM85] | 1 (+1 = if > 4 mV) | 1 (+1 = if > 4 mV) | 19.7 | 19.7 | 19.7 | 4.61 | 1 (ThT. Cat is 1, if Rel. ThT >2) | 4.61 | – |
| CEFEFQFNMWQ [TM140] | -1 (-1 = if < -4 mV) | – | -34.23 | – | -34.23 | 6.057 | 1 (ThT. Cat is 1, if Rel. ThT >2) | 6.057 | Zeta category ( +1 = if > 4 mV;-1 = if < -4 mV; 0 = -4mV to 4 mV) [1, 6]: -1 (-1 = if < -4 mV) |
| KFKFKFQF [TG18] | 1 (+1 = if > 4 mV) | 1 (+1 = if > 4 mV) | 15.2 | – | 15.2 | 41.89 | 1 (ThT. Cat is 1, if Rel. ThT >2) | – | Zeta Pot. / mV [1]: 15.2 mV; Tht rel to blank (42.1851851851852) [2, 5]: 41.89 |
| KFKQFFNMWQ [JG5] | 0 (0 = -4mV to 4 mV) | 0 (0 = -4mV to 4 mV) | -3.43 | – | -3.43 | 1.589 | 0 (ThT-inactive (N-Fold <2)) | – | Zeta Pot. / mV [1]: -3.43 mV; Tht rel to blank (42.1851851851852) [2, 5]: 1.589 |
| RGDKIKIQIC [MG7/CN1] | 1 (+1 = if > 4 mV) | 1 (+1 = if > 4 mV) | 16.5 | 16.5 | 16.5 | 19.76 | 1 (ThT. Cat is 1, if Rel. ThT >2) | 19.76 | Tht category (> 1.5 to blank = +) ([2]; FigS26): 1 (Tht category (> 1.5 to blank = +)) |
| CEIEIQI [AR2/ TM142] | -1 (-1 = if < -4 mV) | – | -26.1 | -26.1 | -26.1 | 2.23 | 1 (ThT. Cat is 1, if Rel. ThT >2) | 2.23 | – |
| CKIKIQINMW [TM86] | 1 (+1 = if > 4 mV) | 1 (+1 = if > 4 mV) | 18.3 | 18.3 | 18.3 | 1.353 | 0 (ThT-inactive (N-Fold <2)) | 1.353 | – |

Reference: PMC10447463, “Data-mining unveils structure–property–activity correlation of viral infectivity enhancing self-assembling peptides” (Nature Communications, 2023)
